In brackets after ≈: the same amount, converted by molar mass. Activity calls are given as the source filed them. The calls are words filed in the database; no cut-off is given here.
Tests used:
[1] = Apparent permeability across human Caco-2 cells; type: ADME, cell-based
PBMC = assay: Inhibition of IL2 production in PHA-stimulated human PBMC after 24 hrs by ELISA
Blood = assay: Inhibition of IL2 production in PHA-stimulated human whole blood after 24 hrs by ELISA
Mus musculus [2] = assay: Suppression of concanavalin A-induced IL2 production in po dosed ICR mouse administered 1 hr before concanavalin A challenge relative to control
Mus musculus [3] = assay: Plasma concentration in mouse at 10 mg/kg, po; type: ADME, organism-based; design: dose 10 mg/kg, route oral; conditions: in vivo
Mus musculus [4] = assay: Plasma concentration in mouse at 30 mg/kg, po; type: ADME, organism-based; design: dose 30 mg/kg, route oral; conditions: in vivo
Mus musculus [5] = assay: Plasma concentration in mouse at 100 mg/kg, po; type: ADME, organism-based; design: dose 100 mg/kg, route oral; conditions: in vivo
[6] = biological target: T1, Tyrosine-protein kinase ZAP-70 (Homo sapiens, UniProt P43403); assay: Inhibition of human ZAP70 expressed in Sf9 cells
T1 sequence (P43403 whole entry): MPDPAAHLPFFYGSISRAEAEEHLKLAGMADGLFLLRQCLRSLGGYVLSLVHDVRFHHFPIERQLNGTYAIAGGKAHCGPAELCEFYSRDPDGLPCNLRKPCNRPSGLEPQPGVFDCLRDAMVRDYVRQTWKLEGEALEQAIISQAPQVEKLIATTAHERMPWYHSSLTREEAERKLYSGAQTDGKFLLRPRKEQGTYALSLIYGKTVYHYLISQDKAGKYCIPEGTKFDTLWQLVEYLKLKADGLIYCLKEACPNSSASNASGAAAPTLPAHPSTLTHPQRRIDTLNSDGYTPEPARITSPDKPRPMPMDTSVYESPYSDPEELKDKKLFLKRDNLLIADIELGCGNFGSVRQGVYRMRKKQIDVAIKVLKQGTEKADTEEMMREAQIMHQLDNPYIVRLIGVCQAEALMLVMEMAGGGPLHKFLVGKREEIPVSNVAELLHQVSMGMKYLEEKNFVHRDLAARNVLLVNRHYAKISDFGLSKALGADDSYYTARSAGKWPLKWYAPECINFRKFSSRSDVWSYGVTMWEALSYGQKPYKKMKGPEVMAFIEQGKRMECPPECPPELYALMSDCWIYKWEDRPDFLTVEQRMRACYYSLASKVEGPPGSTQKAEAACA

[7] = biological target: Tyrosine-protein kinase SYK (Homo sapiens, UniProt P43405)
Description: Inhibition of human Syk expressed in Sf9 cells

[8] = Solubility in water; type: physicochemical
Mus musculus [9] = assay: Suppression of anti-dinitrophenyl-coupled IgE-induced passive cutaneous anaphylaxis reaction in po dosed ICR mouse administered 1 hr before antigen challenge relative to control; type: functional, organism-based
Mus musculus [10] = assay: Plasma concentration in mouse at 3 mg/kg, po; type: ADME, organism-based; design: dose 3 mg/kg, route oral; conditions: in vivo

SMILES | Papp [1] | IC50 (Blood) | IC50 (PBMC) | Activity (Mus musculus [2]) | further results
COc1cc(Nc2nc(N[C@H]3CCCC[C@H]3N)n3cc(-c4ccccc4)nc3c2C(N)=O)cc(OC)c1 | 4.3 nm/s | 2 µM | 0.2 µM | – | –
COc1ccccc1Nc1nc(N[C@H]2CCCC[C@H]2N)n2ccnc2c1C(N)=O (relative stereo) | – | – | – | – | IC50 [6]: > 10 µM; IC50 [7]: > 10 µM
NC(=O)c1c(Nc2cc(F)cc(F)c2)nc(N[C@H]2CCCC[C@H]2N)n2ccnc12 (relative stereo) | – | 3 µM | 0.15 µM | – | –
Cc1cc(C)cc(Nc2nc(N[C@H]3CCCC[C@H]3N)n3ccnc3c2C(N)=O)c1 (relative stereo) | – | 1 µM | 0.2 µM | – | –
CN[C@@H]1C[C@H]2O[C@@](C)([C@@H]1OC)n1c3ccccc3c3c4c(c5c6ccccc6n2c5c31)C(=O)NC4 [STAUROSPORINE] | – | – | 0.016 µM | – | –

Continued by falling IC50 (Blood), values first:

Papp [1] | IC50 (Blood) | SMILES | IC50 (PBMC) | Activity (Mus musculus [2]) | further results
3.3 nm/s | 0.48 µM | COc1cc(Nc2nc(N[C@H]3CCCC[C@H]3N)n3ncnc3c2C(N)=O)cc(OC)c1 | 0.076 µM | inactive | –
0.1 nm/s | 0.44 µM | COc1cc(Nc2nc(N[C@H]3CCCC[C@H]3N)n3cnnc3c2C(N)=O)cc(OC)c1 | 0.046 µM | inactive | Cp (Mus musculus [3]): 0.0284 µg/mL; Cp (Mus musculus [4]): 0.0265 µg/mL; Cp (Mus musculus [5]): 0.0452 µg/mL
33.3 nm/s | 0.28 µM | COc1cc(Nc2nc(N[C@H]3CCCC[C@H]3N)n3ccnc3c2C(N)=O)cc(OC)c1 (relative stereo) | 0.058 µM | Dose-dependent effect | solubility [8]: 0.93 mg/mL (≈ 2190 µM); Activity (Mus musculus [9]): Dose-dependent effect; Cp (Mus musculus [10]): 0.04 µg/mL; Cp (Mus musculus [3]): 0.191 µg/mL; Cp (Mus musculus [4]): 0.77 µg/mL; Cp (Mus musculus [5]): 4.031 µg/mL
